This is an account of results in patent US5290789A, “Penta and tetrasubstituted piperidines and compositions and method of treating psychosis” (Sterling Wintrop Inc., priority 1992, dated 1994).

The target of assay [1] is T1, sigma receptors (Cavia porcellus, UniProt Q60492).
T1 construct: Brain tissue was prepared from male Hartley guinea pigs; from tissue; host or cells: guinea pig brain membranes
In words: sigma receptor binding, [^3 H]-(+)-pentazocine, guinea pig brain membranes. The conditions noted are these: for inhibition at 10 µM: 2.5 h, inhibition of binding at 10 μM, [^3 H]-(+)-pentazocine approximately 0.5 nM, read-out: [^3 H] (+)-Pentazocine Percent Inhibition. On the procedure: (§1) Brain tissue was prepared from male Hartley guinea pigs (Hazelton Labs, Denver, Pa.) which were anesthetized with CO2 and sacrificed by decapitation. All animal care and use procedures were in accord with the "Guide for the Care and Use of Laboratory Animals" (NIH Publ. No. 86-23, 1985). Homogenization was performed in 10 volumes (wt/vol) of 0.32 M sucrose with a Brinkmann Polytron at setting 5, 30 sec. The homogenate was centrifuged at 900×g for 10 min at 4° C., and the supernatant was collected and centrifuged at 22,000×g for 20 min at 4° C. The pellet was resuspended in 10 volumes of Tris-HCl buffer (50 mm, pH 7.4), incubated at 37° C. for 30 min, and centrifuged at 22,000×g for 20 min at 4° C. Following this, the pellet was resuspended in Tris buffer and frozen in 5-10 mL aliquots corresponding to a tissue concentration of 100 mg/ml, at -70° C. Binding characteristics of the membranes were stable for at least one month when stored at -70° C.
On the day of the assay, membrane aliquots were thawed, resuspended in fresh Tris-HCl buffer and stored on ice until use. Each assay tube contained 100 μL of [^3 H]-(+)-pentazocine at a final concentration of approximately 0.5 nM or 100 μL of [^3 H)di(2-tolyl)guanidine (DTG) at a final concentration of approximately 4 nM, 100 μL of various concentrations of the compounds of interest, 500 μL of the tissue suspension and 300 μL of buffer to a final assay volume of 1 mL and a final tissue concentration of approximately 8 mg/tube, corresponding to approximately 0.15 mg protein/tube. Non-specific binding was defined by addition of a final concentration of 1 μM haloperidol to blank tubes for [^3 H](+)-pentazocine assay or by addition of a final concentration of 10 μM haloperidol to blank tubes for [^3 H]DTG assay. All tubes were incubated at 37° C. for 150 min in the [^3 H](+) -pentazocine assay or at 25° C. for 90 min in the [^3 H]DTG assay before termination of the reaction by rapid filtration over Whatman GF/B glass fiber filters that were presoaked in a solution of 0.5% polyethyleneimine for at least 1 hr prior to use. Filters were washed with three 4 ml volumes of cold Tris-HCl buffer.
Following addition of scintillation cocktail, samples were allowed to equilibrate for at least 4 hr. The amount of bound radioactivity was determined by liquid scintillation spectrometry using a Beckman LS 5000 TA liquid scintillation counter with an efficiency for tritium of approximately 60%. The results are reported as a percent (%) inhibition of binding at 10 μM.
(§2) Scatchard parameters and inhibition constants (Ki values) for the binding of test compounds were also calculated using the EBDA/LIGAND program (McPherson, J. Pharmacol. Meth. 1985, 14, 213-228), purchased from Elsevier/Biosoft, Inc. The Ki values are expressed as the mean or the mean ±SEM of at least two separate determinations performed in triplicate.

The test system of assay [2] is sigma receptors. As to the kind of experiment: sigma receptor binding, [^3 H]di(2-tolyl)guanidine (DTG), guinea pig brain membranes. To be noted: inhibition of binding at 10 μM; [^3 H]DTG approximately 4 nM, 25° C., 90 min. How it is done: as §1
On the day of the assay, membrane aliquots were thawed, resuspended in fresh Tris-HCl buffer and stored on ice until use. […]
Following addition of scintillation cocktail, samples were allowed to equilibrate for at least 4 hr. The amount of bound radioactivity was determined by liquid scintillation spectrometry using a Beckman LS 5000 TA liquid scintillation counter with an efficiency for tritium of approximately 60%. […]
as §2

Assay [3] deals with apomorphine-induced stereotypy. In words: apomorphine-induced stereotypy assay. The format is in vivo, mouse (male, Swiss-Webster). To be noted: test compound i.p., apomorphine 5.5 mg/kg s.c.; rated 20-30 minutes post drug treatment. How it is done: (§3) The compound of Example 4 was tested in vivo in the apomorphine-induced climbing assay and the apomorphine-induced stereotypy assay using the following procedures:
(§4) Male, Swiss-Webster mice (Taconic Farms, Germantown, N.Y.) weight 20-30 grams were grouped housed in colony facilities for a minimum of two days prior to testing. The colony facility was maintained on a 12 hour light/dark cycle (light: 0600-1800 hours) with water and Agway Prolab 100 rat chow available ad libitum. Each mouse was given an injection of test compound i.p. followed immediately by a s.c. injection of apomorphine 5.5 mg/kg or vehicle. All drugs were administered in a volume of 10 ml/kg body weight. The mice were then placed in individual cylindrical stainless steel climbing cages; 14.5 cm tall, 12 cm in diameter, with walls consisting of 1/16" O.D. bars spaced 0.8-1.0 cm apart, and were allowed to habituate to this environment for 20 minutes. […] Briefly, a (0) was scored for absence of any stereotypic behavior, infrequent stereotypic movements were scored as (1) , a (2) was scored for permanent sniffing and a score of (3) indicated intense and continuous stereotypic behavior. Treatment means for the 10 minute totals were calculated for climbing and stereotypy. […] A minimal effective dose (MED) for inhibition was determined for each parameter based on these analyses.

Assay [4] deals with apomorphine-induced climbing. In words: apomorphine-induced climbing assay. The format is in vivo, mouse (male, Swiss-Webster). The conditions noted are these: Mus musculus, ip; test compound i.p., apomorphine 5.5 mg/kg s.c.; rated 20-30 minutes post drug treatment; Dunnett's Test P<0.05; read-out: minimal effective dose (MED) for inhibition of apomorphine-induced climbing. On the procedure: as §3, §4

Where [5] appears, read: mean or mean ±SEM of at least two separate determinations performed in triplicate, 37° C., 150 min, read-out: [^3 H] (+)-Pentazocine Ki.

For orientation: Ki means a measure of affinity in units of concentration, obtained from inhibition or displacement. Broadly, the minimal effective dose is the smallest amount tested that counted as effective. What is called inhibition is the drop in the measured response relative to a control, in per cent.

Where two headings read alike, the source gives them in different places.

T1 sequence (Q60492 whole entry): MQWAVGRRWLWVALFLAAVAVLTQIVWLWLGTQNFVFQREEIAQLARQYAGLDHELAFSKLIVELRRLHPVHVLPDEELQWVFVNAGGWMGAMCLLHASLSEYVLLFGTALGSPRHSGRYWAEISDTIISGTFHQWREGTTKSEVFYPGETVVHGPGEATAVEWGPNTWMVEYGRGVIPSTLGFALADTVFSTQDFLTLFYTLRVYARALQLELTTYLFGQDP

Turning to `COCCC[C@]1(C)[C@H](C)CCN(C)[C@H]1C` (relative stereo) [Example 13, 3-(3-methoxypropyl)-1,2,3,4-tetramethylpiperidine], the Ki at sigma receptors [1] (setting [5]) was determined as 7.67 µM.
In the case of `C[C@@H]1CCN[C@@H](C)[C@]1(C)CCCO` (relative stereo) [Example 3c, 2.3.4-trimethyl-3-piperidinepropanol], the “[3H]DTG Percent Inhibition” value in the assay on sigma receptors [2] is given as 23 percent (%). Moreover, on sigma receptors [1] (setting [5]), the Ki is 16.7 µM.
Take `C[C@@H]1CCN(Cc2ccccc2)[C@@H](C)[C@]1(C)CCCOCC1CC1` (relative stereo) [Example 4, 3-[3-(cycloprolmethoxy)propyl]-2,3,4-trimethyl-1-(phenylmethyl)piperidine]: in assay [3], the “effect on stereotypic behavior” value is listed as “did not affect stereotypic behavior”. In addition, in assay [4], the minimal effective dose was found to be 167 µmol/kg. On sigma receptors [1] (setting [5]), the inhibitory constant (Ki) stood at 0.0037 ± 0.0004 µM.
On to `CC(C)N1CC[C@@H](C)[C@@](C)(CCCOCC2CC2)[C@@H]1C` (relative stereo) [Example 5b, 3-[3-(cyclopropylmethoxy)propyl]-2,3,4-trimethyl-1-(1-methylethyl)piperidine], for which the inhibition at 10 µM on sigma receptors [1] (37° C., 150 min) came out at 91%. In addition, the inhibition constant (Ki) at sigma receptors [1] (setting [5]) is 0.435 ± 0.017 µM.
Take `C[C@@H]1CCN(C)[C@@H](C)[C@@H]1CCCOCC1CC1` (relative stereo) [Example 2c, 3-[3-(cyclopropylmethoxy)propyl]1,2,4-trimethylpiperidine]: on sigma receptors [1] (setting [5]), the inhibition constant Ki stood at 0.005 ± 0.0002 µM.
Turning to `C[C@@H]1CCN(Cc2ccccc2)[C@@H](C)[C@]1(C)CCO` (relative stereo) [Example 8b, 2,3,4-trimethyl-1-(phenylmethyl)-3-piperidineethanol], on sigma receptors [1] (37° C., 150 min), the inhibition at 10 µM worked out at 85%.
In the case of `C[C@@H]1CCN(C)[C@@H](C)[C@]1(C)CCCOCC1CC1` (relative stereo) [Example 1c, 3-[3-(cyclopropylmethoxy)propyl]1,2,3,4-tetramethylpiperidine], on sigma receptors [1], affinity was put at a Ki of 0.197 ± 0.032 µM. Further, the inhibition at 10 µM at sigma receptors [1] (37° C., 150 min) amounted to 94%.
For the molecule `C[C@@H]1CCN(C)[C@@H](C)[C@]1(C)CCCO` (relative stereo) [Example 1b, 3-(1,2,3,4-tetramethyl-3-piperidine)propanol], in the assay on sigma receptors [2], the “[3H]DTG Percent Inhibition” value is reported as 39 percent (%). In addition, the inhibition at 10 µM on sigma receptors [1] (37° C., 150 min) was 42%.
The like results for `CC(C)N1CC[C@@H](C)[C@@](C)(CCCO)[C@@H]1C` (relative stereo) [Example 5a, 2,3. 4-trimethyl-l-(1-methylethyl)-3-piperidinepropanol] were, in that order, 30 percent (%) and 17%.
Regarding `C=CCOCCC[C@]1(C)[C@H](C)CCN(C)[C@H]1C` (relative stereo) [Example 6], the inhibition at 10 µM at sigma receptors [1] (37° C., 150 min) was determined as 89%. For the same molecule, the Ki on sigma receptors [1] (setting [5]) was found to be 0.559 ± 0.064 µM.
Take `CCCN1CC[C@@H](C)[C@@](C)(CCCOCC2CC2)[C@@H]1C` (relative stereo) [Example 3f, 3-[3-(cyclopropylmethoxy)propyl]-2,3,4-trimethyl-1-propylpiperidine]: on sigma receptors [1] (37° C., 150 min), the inhibition at 10 µM was 99%. The inhibitory constant (Ki) at sigma receptors [1] (setting [5]) came out at 0.045 ± 0.002 µM.
On to `C=CCOCC[C@]1(C)[C@H](C)CCN(Cc2ccccc2)[C@H]1C` (relative stereo) [Example 9], for which the inhibition at 10 µM on sigma receptors [1] (37° C., 150 min) came out at 99%. Moreover, the inhibitory constant (Ki) on sigma receptors [1] (setting [5]) stood at 0.3 ± 0.065 µM.
On to `C#CCOCCC[C@]1(C)[C@H](C)CCN(C)[C@H]1C` (relative stereo) [Example 7], for which the inhibition at 10 µM at sigma receptors [1] (37° C., 150 min) is 76%.
